Reference: the Kinase Knowledgebase extract (Sharma et al. 2016)
pIC50: −log10 of the molar value.

Tests used:
CDK2 (human) = CDK2 (human) (UniProt P24941); conditions: for inhibition: concentration not given here
MAPK14 (human) = MAPK14 (human) (UniProt Q16539); conditions: concentration not given here
PIK3CA (human) = PIK3CA (human) (UniProt P42336)
PIK3CB (Human) = PIK3CB (Human) (UniProt P42338)
PIK3CD (Human) = PIK3CD (Human) (UniProt O00329)
PIK3CG (human) = PIK3CG (human) (UniProt P48736)
EGFR (human) = EGFR (human) (UniProt P00533)

PIK3CB (Human), sequence (P42338 whole entry, looked up): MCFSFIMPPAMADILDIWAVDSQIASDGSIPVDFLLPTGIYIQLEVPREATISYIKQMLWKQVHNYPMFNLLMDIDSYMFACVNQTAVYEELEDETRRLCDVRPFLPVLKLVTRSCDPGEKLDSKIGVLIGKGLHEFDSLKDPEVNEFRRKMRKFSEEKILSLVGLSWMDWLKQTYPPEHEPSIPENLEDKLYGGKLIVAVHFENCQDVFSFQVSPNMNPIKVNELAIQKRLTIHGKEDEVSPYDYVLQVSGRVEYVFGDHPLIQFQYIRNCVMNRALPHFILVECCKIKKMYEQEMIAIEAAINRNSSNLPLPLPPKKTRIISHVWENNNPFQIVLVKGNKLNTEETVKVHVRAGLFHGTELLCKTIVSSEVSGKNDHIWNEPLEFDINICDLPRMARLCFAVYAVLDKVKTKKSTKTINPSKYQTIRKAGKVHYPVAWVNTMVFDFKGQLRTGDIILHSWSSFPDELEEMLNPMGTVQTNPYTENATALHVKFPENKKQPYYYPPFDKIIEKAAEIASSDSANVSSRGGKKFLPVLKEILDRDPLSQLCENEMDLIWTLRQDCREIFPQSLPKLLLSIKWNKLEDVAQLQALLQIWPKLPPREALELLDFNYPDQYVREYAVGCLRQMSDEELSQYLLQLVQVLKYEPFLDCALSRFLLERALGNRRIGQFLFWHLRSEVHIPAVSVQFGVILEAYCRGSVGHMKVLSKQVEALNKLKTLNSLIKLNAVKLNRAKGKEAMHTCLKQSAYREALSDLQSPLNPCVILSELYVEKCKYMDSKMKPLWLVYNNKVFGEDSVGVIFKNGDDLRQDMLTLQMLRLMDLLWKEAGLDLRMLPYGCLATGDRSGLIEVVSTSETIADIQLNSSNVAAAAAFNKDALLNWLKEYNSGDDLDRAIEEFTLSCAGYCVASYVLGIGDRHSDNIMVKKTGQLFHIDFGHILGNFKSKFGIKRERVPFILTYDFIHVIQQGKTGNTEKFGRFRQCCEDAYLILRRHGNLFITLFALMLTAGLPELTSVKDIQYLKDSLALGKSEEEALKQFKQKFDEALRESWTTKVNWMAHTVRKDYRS
PIK3CD (Human), sequence (O00329 whole entry, looked up): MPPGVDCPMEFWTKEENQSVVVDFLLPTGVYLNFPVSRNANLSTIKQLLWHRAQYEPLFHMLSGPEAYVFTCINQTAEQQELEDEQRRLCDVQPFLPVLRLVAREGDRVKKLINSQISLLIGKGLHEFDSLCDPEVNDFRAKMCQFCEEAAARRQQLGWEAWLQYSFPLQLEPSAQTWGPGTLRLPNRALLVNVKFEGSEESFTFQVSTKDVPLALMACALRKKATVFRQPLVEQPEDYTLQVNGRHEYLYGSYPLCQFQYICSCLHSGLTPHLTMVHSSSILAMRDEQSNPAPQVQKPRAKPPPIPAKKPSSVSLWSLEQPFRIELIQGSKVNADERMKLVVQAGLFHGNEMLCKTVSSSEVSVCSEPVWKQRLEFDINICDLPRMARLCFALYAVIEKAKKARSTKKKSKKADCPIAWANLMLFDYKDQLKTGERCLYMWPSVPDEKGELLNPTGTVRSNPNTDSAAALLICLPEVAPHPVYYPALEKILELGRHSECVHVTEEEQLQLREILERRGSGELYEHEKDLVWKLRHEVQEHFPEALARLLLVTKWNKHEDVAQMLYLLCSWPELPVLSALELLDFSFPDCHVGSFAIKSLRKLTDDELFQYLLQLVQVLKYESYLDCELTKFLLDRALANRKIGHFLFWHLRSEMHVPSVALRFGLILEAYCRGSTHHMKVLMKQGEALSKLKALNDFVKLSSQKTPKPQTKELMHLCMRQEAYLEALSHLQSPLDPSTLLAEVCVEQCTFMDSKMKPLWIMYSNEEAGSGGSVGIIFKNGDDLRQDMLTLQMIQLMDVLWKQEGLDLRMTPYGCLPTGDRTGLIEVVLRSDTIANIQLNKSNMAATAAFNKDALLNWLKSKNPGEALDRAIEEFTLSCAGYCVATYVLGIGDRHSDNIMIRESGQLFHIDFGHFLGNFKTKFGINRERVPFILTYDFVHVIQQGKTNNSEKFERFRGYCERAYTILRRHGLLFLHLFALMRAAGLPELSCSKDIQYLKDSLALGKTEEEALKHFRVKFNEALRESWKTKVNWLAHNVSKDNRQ
PIK3CG (human), sequence (P48736 whole entry, looked up): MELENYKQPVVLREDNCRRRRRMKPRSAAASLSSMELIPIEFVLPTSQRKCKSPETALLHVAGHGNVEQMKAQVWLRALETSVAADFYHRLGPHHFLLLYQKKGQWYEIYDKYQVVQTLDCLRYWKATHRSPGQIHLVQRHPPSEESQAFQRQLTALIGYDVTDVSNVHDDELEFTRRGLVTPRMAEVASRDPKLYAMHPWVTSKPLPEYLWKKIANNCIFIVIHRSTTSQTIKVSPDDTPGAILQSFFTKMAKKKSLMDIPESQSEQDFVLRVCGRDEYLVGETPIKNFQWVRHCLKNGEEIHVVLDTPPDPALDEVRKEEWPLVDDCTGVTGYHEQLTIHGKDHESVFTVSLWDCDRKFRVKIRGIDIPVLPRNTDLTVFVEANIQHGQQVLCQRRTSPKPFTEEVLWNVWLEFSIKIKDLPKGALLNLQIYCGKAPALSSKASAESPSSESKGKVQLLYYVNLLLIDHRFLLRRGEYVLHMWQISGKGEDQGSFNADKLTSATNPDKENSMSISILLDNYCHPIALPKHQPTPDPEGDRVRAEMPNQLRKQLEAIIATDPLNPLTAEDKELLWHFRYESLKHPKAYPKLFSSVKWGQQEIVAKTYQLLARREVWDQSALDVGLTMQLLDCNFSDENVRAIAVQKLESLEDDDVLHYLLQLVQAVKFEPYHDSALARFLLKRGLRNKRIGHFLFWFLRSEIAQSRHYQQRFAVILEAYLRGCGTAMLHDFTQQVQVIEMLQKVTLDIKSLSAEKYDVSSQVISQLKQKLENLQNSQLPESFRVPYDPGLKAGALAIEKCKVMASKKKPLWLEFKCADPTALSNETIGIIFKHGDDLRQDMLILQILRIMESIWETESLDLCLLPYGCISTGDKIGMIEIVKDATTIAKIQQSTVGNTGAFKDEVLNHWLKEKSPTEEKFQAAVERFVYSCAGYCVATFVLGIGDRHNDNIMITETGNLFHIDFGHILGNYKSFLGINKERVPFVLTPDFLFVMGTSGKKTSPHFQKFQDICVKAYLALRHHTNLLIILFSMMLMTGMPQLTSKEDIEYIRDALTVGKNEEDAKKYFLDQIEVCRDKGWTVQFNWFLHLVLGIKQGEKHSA
MAPK14 (human), sequence (Q16539 whole entry, looked up): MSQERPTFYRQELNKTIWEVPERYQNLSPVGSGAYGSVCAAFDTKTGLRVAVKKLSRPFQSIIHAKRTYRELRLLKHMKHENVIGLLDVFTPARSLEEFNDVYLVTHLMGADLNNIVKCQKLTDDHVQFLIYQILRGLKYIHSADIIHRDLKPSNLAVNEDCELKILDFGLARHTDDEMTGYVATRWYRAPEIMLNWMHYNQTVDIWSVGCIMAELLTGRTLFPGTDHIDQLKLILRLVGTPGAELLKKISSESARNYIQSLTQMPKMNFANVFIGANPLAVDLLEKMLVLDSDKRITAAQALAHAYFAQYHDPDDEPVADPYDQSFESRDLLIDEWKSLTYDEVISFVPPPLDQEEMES
PIK3CA (human), sequence (P42336 whole entry, looked up): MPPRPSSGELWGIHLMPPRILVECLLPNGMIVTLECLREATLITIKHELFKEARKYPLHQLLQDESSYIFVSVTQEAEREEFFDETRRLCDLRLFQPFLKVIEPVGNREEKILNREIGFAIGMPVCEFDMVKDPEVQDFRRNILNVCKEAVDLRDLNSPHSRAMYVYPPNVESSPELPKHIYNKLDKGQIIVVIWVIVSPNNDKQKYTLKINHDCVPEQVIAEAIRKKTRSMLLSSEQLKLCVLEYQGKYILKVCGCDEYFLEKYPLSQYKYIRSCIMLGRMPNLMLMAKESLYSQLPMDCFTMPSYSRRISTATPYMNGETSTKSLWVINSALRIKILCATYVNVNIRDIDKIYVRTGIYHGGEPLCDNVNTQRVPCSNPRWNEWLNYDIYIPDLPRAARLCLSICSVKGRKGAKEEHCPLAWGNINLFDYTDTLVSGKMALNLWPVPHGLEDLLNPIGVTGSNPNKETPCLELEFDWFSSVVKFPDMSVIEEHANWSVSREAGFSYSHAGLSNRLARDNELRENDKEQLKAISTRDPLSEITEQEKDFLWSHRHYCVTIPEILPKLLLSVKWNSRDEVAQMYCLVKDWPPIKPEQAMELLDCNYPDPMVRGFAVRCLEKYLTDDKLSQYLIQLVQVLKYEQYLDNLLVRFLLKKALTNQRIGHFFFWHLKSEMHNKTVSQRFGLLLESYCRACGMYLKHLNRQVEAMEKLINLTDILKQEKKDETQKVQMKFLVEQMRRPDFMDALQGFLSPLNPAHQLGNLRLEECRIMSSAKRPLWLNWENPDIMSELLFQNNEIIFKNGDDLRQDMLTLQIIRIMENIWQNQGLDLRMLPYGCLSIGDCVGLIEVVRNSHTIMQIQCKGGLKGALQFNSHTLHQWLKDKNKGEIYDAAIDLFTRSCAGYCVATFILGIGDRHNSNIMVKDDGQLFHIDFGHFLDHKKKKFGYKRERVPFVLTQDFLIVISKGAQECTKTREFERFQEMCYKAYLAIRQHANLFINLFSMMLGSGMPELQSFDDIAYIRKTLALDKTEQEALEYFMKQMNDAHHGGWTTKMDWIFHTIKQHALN

SMILES | inhibition (CDK2 (human)) | inhibition (MAPK14 (human)) | pIC50 (PIK3CA (human)) | pIC50 (PIK3CB (Human)) | pIC50 (PIK3CD (Human)) | pIC50 (PIK3CG (human)) | pIC50 (EGFR (human)) | pIC50 (CDK2 (human))
O=c1cc(-c2cccc3c2Sc2ccccc2S3)oc(N2CCOCC2)c1 | 2.6% | -1.4% | 5.48 | 5.92 | 6.14 | 5.00 |  | 
O=C1NC(=S)S/C1=C/c1ccc2c(c1)N(Cc1ccc(F)c(Cl)c1)C(=O)CO2 | -4.9% | -2.6% |  | 5.96 |  |  |  | 
CC(C)n1cc(-c2cc3cc(C=O)ccc3s2)c2c(N)ncnc21 |  |  | 4.30 to 6.00 | 4.30 to 6.00 | 4.30 to 6.00 | 4.30 to 6.00 | < 4.30 | 
Cc1ccccc1-n1c(Cn2ncc3c(N)ncnc32)nc2cccc(C)c2c1=O |  |  | 4.00 | 4.60 | 6.62 | 5.00 |  | 
Cc1ccccc1-n1c(Cn2cnc3c(N)ncnc32)nc2cccc(C)c2c1=O | -2.4% | -4.1% |  |  |  |  |  | 
Cc1cc(C(C)Nc2ccccc2)c2oc(-c3ccncc3)cc(=O)c2c1 (stereo unspecified) | -3.1% | -0.9% |  | 6.92 |  |  |  | 
Oc1cccc(-c2nc(N3CCOCC3)c3oc4ncccc4c3n2)c1 | 1.5% | 0.2% |  |  |  |  |  | 
COc1ccc2c(c1OC)N=C(NC(=O)c1cccnc1)N1CCN=C21 | -0.9% | 1.5% |  |  |  |  | < 4.30 | 

Now from value to molecule:

inhibition (CDK2 (human)) | inhibition (MAPK14 (human)) | pIC50 (PIK3CA (human)) | pIC50 (PIK3CB (Human)) | pIC50 (PIK3CD (Human)) | pIC50 (PIK3CG (human)) | pIC50 (EGFR (human)) | pIC50 (CDK2 (human)) | SMILES
0.3% | -2.8% |  |  |  |  |  |  | O=C(c1ccccc1)c1ccc(N2CCOCC2)cc1O
 |  | 4.30 to 6.00 | 4.30 to 6.00 | > 6.00 | > 6.00 | > 6.00 |  | CC(C)n1nc(-c2cccc(C(=O)NC3C=NCS3)c2)c2c(N)ncnc21 (stereo unspecified)
 |  | > 6.00 | 4.30 to 6.00 | > 6.00 | > 6.00 | 4.30 to 6.00 |  | CC(C)n1nc(-c2ccc3onc(N)c3c2)c2c(N)ncnc21
1.9% | -2.9% |  | 6.23 |  |  |  |  | CC(=O)Nc1nc(C)c(-c2ccc(Cl)c(S(=O)(=O)NCCO)c2)s1
 | -0.3% |  |  |  | 7.12 |  | 5.92 | Cc1ccc([N+](=O)[O-])cc1S(=O)(=O)N(C)N=Cc1cnc2ccc(Br)cn12
 |  | 4.30 to 6.00 | 4.30 to 6.00 | > 6.00 | 4.30 to 6.00 | 4.30 to 6.00 |  | CC(C)n1nc(-c2ccc(I)cc2)c2c(N)ncnc21
-5.6% | -8.5% |  |  |  |  |  |  | COc1ccccc1-n1c(CSc2ncnc3[nH]cnc23)nc2cccc(Cl)c2c1=O
-5.3% | -1.2% |  |  |  | 4.00 |  |  | Cc1ccccc1Oc1cccc2c(=O)cc(N3CCOCC3)[nH]c12
